Entries after “also recorded” stand apart in the source; their conditions may differ.
Columns and labels:
[1] = Absorption/emission profiles and spectral properties of the dyes; type: physicochemical
Protocol: The following properties of 679 Compound 1-NHS were compared with commercially available dyes.
Emission/excitation profiles for inventive and commercial compounds was determined by reconstituting the compounds in DMF at 10 mg/ml and then diluting in PBS buffer pH 7.2 to 10 μg/ml. Absorbance spectra were collected on Cary UV spectrophotometer and emission spectra were collected on Tecan Safire, shown in FIG. 1 where solid lines represent absorbance spectra and dashed lines represent emission spectra, for DyLight 680-NHS (purple), DyLight 680B-NHS (blue), 679 Compound 1-NHS (red), and Company B Compound-NHS (black). The maximum absorbance and emission for each compound is shown below.
The following properties of 679 Compound 1-NHS, 679 Compound 4/4-NHS (V08-15173), and 679 Compound 4/4-NHS (V10-04152) were compared with commercially available dyes.

[2] = Micro conjugation (labeling of ≥0.1 mg monoclonal antibody): D/P, protein recovery, free dye; conditions: 15 μg dye or commercial kit, mouse MAb
Protocol: Another experiment set used inventive and commercial compounds, each as the NHS ester, in a micro conjugation (labeling of≥0.1 mg antibody). […] The antibodies were labeled and purified as described above.

CEA = tested on: CEA; design: species or system nu/nu mice; conditions: mouse; for post-experiment surgical exposure (in words): in vivo
Protocol: The inventive compounds are used for in vivo imaging as described in J. Gastrointest Surg (2008) 12:1938-1950. Briefly, human pancreatic cell lines are maintained in media supplemented with penicillin/streptomycin at 37° C. with 5% CO2. Mouse anti-CEA antibody and Control Mouse IgG (in PBS with 0.20% sodium azide) are conjugated to V08-15173. The dye is reconstituted at 10 mg/ml in DMF and then added to the antibody at a 10 molar excess. The reaction is carried out for one hour at room temperature. The samples are then dialyzed against 3×2 L of PBS. The cell lines are plated in 96-well plates at 5×10^4 cells per well. After 48 hours culture in appropriate media, the cells are incubated with 1 μg of V08-15173 labeled anti-CEA antibody or V08-15173-labeled control mouse IgG for four hours at 37° C. The cells are then washed three times with PBS and then imaged with an inverted Nikon De-485 microscope and Spot camera RD.
Surgical procedures and intravital imaging are performed with the animals anesthesized by intramuscular injection of 0.02 ml of 50% ketamine, 38% xylazine and 12 acepromazine maleate. Human pancreatic and colorectal cancer cell lines are harvested by trypsinization and washed twice with serum free medium and washed twice with serum-free medium. Cells (1×10^6 in 100 μl of serum-free media) are injected subcutaneously within 30 minutes of harvesting over the right flank in female nu/nu mice between 4-6 weeks of age. Subcutaneous tumors are allowed to grow for 7-14 days until they reached diameter of 1-2 mm prior to the delivery of conjugated antibody. For ASPC-1 implants, the cells are harvested by trpsinization and washed 3× in serum-free media. The cells are resuspended in serum-free media. The cells are resuspended in serum-free media at 5×10^6/ml. A volume of 200 μl of the cell suspension is then injected directly into the peritoneal cavity within 30 minutes of harvesting.
For antibody delivery, one to two weeks after subcutaneous, orthotopic, or intraperitoneal tumor implantation, animals are given intravenous (i.v.) injection of either conjugated anti-CEA or conjugated control IgG antibody diluted in PBS to a final volume of 100 μl. All i.v. injections are done via the tail vein. For the dose-response experiment, the antibody dose is 75 μg. For the in vivo time course, the animals are anesthesized and imaged at 30 min, 1, 2, 6, 24 hours and 8 and 15 days after systemic antibody delivery.
The inventive compounds are used for in vivo imaging as described in J. Gastrointest Surg (2008) 12:1938-1950. Briefly, human pancreatic cell lines are maintained in media supplemented with penicillin/streptomycin at 37° C. with 5% CO2. Mouse anti-CEA antibody and Control Mouse IgG (in PBS with 0.20% sodium azide) are conjugated to 779 Compound 1. […]

lamin A = assay: Immunofluorescence detection of lamin A in U2OS cells, dye-GAM secondary (FIG. 29A-C and repeat); type: cell-based, human; conditions: for Mean Total Intensity, Negative control: no primary antibody
Protocol: In the indicated experiments, the inventive compounds and commercial dye were evaluated for immunofluorescence in a cell based assay using the following protocol. Frozen U20S cell plates which were stored at −80° C. were thawed for 45 minutes at 50° C. Storage buffer (PBS) was removed and the cells were permeabilized for 15 minutes with 0.1% Triton-X100 in 1×PBS buffer (100 μl/well). The cell plate was blocked for 60 minutes in 2% BSA/PBS-0.1% Triton-X100. Primary antibody, either rat anti-Grp94 (5 μg/ml), mouse anti-lamin A (10 μg/ml), or rabbit anti-lamin B1 (10 μg/ml), diluted in 2% BSA/PBS-0.1% Triton-X100 was added to the plate and incubated for 1 hour at room temperature. Control wells contained only 2% BSA/PBS-0.1% Triton-X100 blocker. After incubation, the antibody solution was removed from the plate and the plate was washed three times with 100 μl/well of PBS-0.5% Tween-20 and one time with 100 μl/well PBS. GARat, GAM, or GAR secondary antibodies labeled with various molar excess of the inventive or commercial compound were diluted to 4 μg/ml in PBS and incubated for 1 hour at room temperature. The plates were washed three times with 100 μl/well of PBST and once with 100 μl/well PBS, and Hoechst (diluted to 0.1 μg/ml in PBS) was added to each well (100 μl/well). The plates were scanned on ArrayScan Plate Reader or ToxInsight Instrument.
Quantitative analysis of a repeat experiment of FIG. 29A-C are shown below.

[3] = first property table of Example 6
[4] = second property table of Example 6

## COCC[N+]1=C(/C=C/C=C/C=C2/N(CCCCCC(=O)O)c3ccc4c(S(=O)(=O)[O-])cc(S(=O)(=O)[O-])cc4c3C2(C)C)C(C)(CCCS(=O)(=O)[O-])c2c1ccc1c(S(=O)(=O)[O-])cc(S(=O)(=O)[O-])cc21.[Na+].[Na+].[Na+].[Na+] (single isomer, unassigned) [679 Compound 1/1 (Isomer 1), 2-{(1E,3E)-5-[3-(5-Carboxypentyl)-1,1-dimethyl-6,8-disulfo-1,3-dihydro-benzo[e]indol-(2E)-ylidene]-penta-1,3-dienyl}-3-(2-methoxy-ethyl)-1-methyl-6,8-disulfo-1-(3-sulfopropyl)-1H-benzo[e]indolium]
[1]; PBS
  UV-vis (PBS): λmax: 679 nm
  λem: 698 nm

## Alexa 680-cytochrome C
[2]
  % Free Dye: 3%

## COCC[N+]1=C(/C=C/C=C/C=C2/N(CCCCCC(=O)ON3C(=O)CCC3=O)c3ccc4c(S(=O)(=O)[O-])cc(S(=O)(=O)O)cc4c3C2(C)C)C(C)(CCCS(=O)(=O)O)c2c1ccc1c(S(=O)(=O)O)cc(S(=O)(=O)O)cc21 (stereo not drawn) [679 Compound 1-NHS]
[1]; [3]
  Em (nm): 698 nm
  Ex (nm): 679 nm
[1]; [4]
  Em (nm): 698 nm
  Ex (nm): 679 nm
[1]; theoretical
  ε (M^−1cm^−1) (theoretical): 180,000 M^−1cm^−1
  ε (M−1cm−1) (theoretical): 180,000 M−1cm−1

## COCC[N+]1=C(/C=C/C=C/C=C/C=C2/N(CCCCCC(=O)O)c3ccc4c(S(=O)(=O)[O-])cc(S(=O)(=O)O)cc4c3C2(C)C)C(C)(CCCS(=O)(=O)O)c2c1ccc1c(S(=O)(=O)O)cc(S(=O)(=O)O)cc21 (stereo not drawn) [779 Compound 1]
CEA
  Ex vivo analysis of the vital organs (in words): presence of dye predominantly in the liver with some signal detected in the spleen intestines and lungs
  post-experiment surgical exposure (in words): accumulation of dye in the liver, bladder, and a region of inflammation in the subcutaneous tissue

## COCC[N+]1=C(/C=C/C=C/C=C2/N(CCCCCC(=O)O)c3ccc4c(S(=O)(=O)[O-])cc(S(=O)(=O)[O-])cc4c3C2(C)C)C(C)(CCCS(=O)(=O)[O-])c2c1ccc1c(S(=O)(=O)[O-])cc(S(=O)(=O)[O-])cc21.[Na+].[Na+].[Na+].[Na+] (single isomer, unassigned) [679 Compound 1/1 (Isomer 2), 2-{(1E,3E)-5-[3-(5-Carboxypentyl)-1,1-dimethyl-6,8-disulfo-1,3-dihydro-benzo[e]indol-(2E)-ylidene]-penta-1,3-dienyl}-3-(2-methoxy-ethyl)-1-methyl-6,8-disulfo-1-(3-sulfopropyl)-1H-benzo[e]indolium]
[1]; PBS
  λem: 698 nm

## COCCOCCOCCOCC[N+]1=C(/C=C/C=C/C=C2/N(CCOCCOCCOCCOCCC(=O)ON3C(=O)CCC3=O)c3ccc4c(S(=O)(=O)[O-])cc(S(=O)(=O)O)cc4c3C2(C)CCOCCOCCOCCOC)C(C)(CCOCCOCCOCCOC)c2c1ccc1c(S(=O)(=O)O)cc(S(=O)(=O)O)cc21 (stereo not drawn) [Compound V08-15173]
Lamin A; 2.5 X molar excess
  S/B: 2.9
Lamin A; 5.0 X molar excess
  S/B: 4.9
Lamin A; 7.5 X molar excess
  S/B: 6.0
Lamin A; 10 X molar excess
  S/B: 4.9
Lamin A; 15 X molar excess
  S/B: 4.6
Lamin A; GAM conjugate 4 μg/ml, 2.5 X molar excess
  Mean Total Intensity (Average): 17366
Lamin A; GAM conjugate 4 μg/ml, 5.0 X molar excess
  Mean Total Intensity (Average): 32820
Lamin A; GAM conjugate 4 μg/ml, 7.5 X molar excess
  Mean Total Intensity (Average): 42876
Lamin A; GAM conjugate 4 μg/ml, 10 X molar excess
  Mean Total Intensity (Average): 47756
Lamin A; GAM conjugate 4 μg/ml, 15 X molar excess
  Mean Total Intensity (Average): 49060
Lamin A; GAM conjugates
  non-specific binding / specificity (in words): a minimal amount of non-specific binding; also recorded: little non-specific binding
Lamin A; 2.5 X
  Mean Total Intensity, Negative control: 5966
Lamin A; 5.0 X
  Mean Total Intensity, Negative control: 6643
Lamin A; 7.5 X
  Mean Total Intensity, Negative control: 7100
Lamin A; 10 X
  Mean Total Intensity, Negative control: 9690
Lamin A; 15 X
  Mean Total Intensity, Negative control: 10779
Lamin A; repeat experiment, 2.5 X
  S/B: 9.8
  Mean Total Intensity, Negative control: 12053
Lamin A; repeat experiment, 2.5 X molar excess
  Mean Total Intensity (Average): 118440
Lamin A; repeat experiment, 5 X
  S/B: 19.4
  Mean Total Intensity, Negative control: 9441
Lamin A; repeat experiment, 5 X molar excess
  Mean Total Intensity (Average): 183078
Lamin A; repeat experiment, 10X
  S/B: 29.9
  Mean Total Intensity, Negative control: 13094
Lamin A; repeat experiment, 10X molar excess
  Mean Total Intensity (Average): 391473
Lamin A; repeat experiment, 15 X
  S/B: 12.2
  Mean Total Intensity, Negative control: 17260
Lamin A; repeat experiment, 15 X molar excess
  Mean Total Intensity (Average): 211270
CEA
  Ex vivo analysis of the vital organs (in words): presence of dye predominantly in the liver with some signal detected in the spleen intestines and lungs
  post-experiment surgical exposure (in words): accumulation of dye in the liver, bladder, and a region of inflammation in the subcutaneous tissue

## COCCOCCOCCOCC[N+]1=C(/C=C/C=C/C=C2/N(CCOCCOCCOCCOCCC(=O)ON3C(=O)CCC3=O)c3ccc4c(S(=O)(=O)[O-])cc(S(=O)(=O)O)cc4c3C2(C)CCOCCOCCOCCOC)C(C)(CCOCCOCCOCCOC)c2c1ccc1c(S(=O)(=O)O)cc(S(=O)(=O)O)cc21 (stereo not drawn) [V08-15173 NHS]
[1]; [4]
  Em (nm): 706 nm
  Ex (nm): 684 nm
[1]; theoretical
  ε (M^−1cm^−1) (theoretical): 180,000 M^−1cm^−1

## Alexa 680-PDI
[2]
  % Free Dye: 9%

## CF 680-cytochrome C
[2]
  % Free Dye: 17%

## CF 680R-cytochrome C
[2]
  % Free Dye: 5%

Source: patent US10526317B2, “Benzocyanine compounds” (PIERCE BIOTECHNOLOGY, INC., priority 2012, dated 2020)
